These results are taken from patent publication US20260184710A1, “CASITAS B-LINEAGE LYMPHOMA PROTOONCOGENE B (CBL-B) DEGRADING COMPOUNDS AND ASSOCIATED METHODS OF USE” (Arvinas Operations, Inc., priority 2022, published 2026).

Bounds are passed on as bounds.

For the first experiment, the target named is T1, Cbl-b (Homo sapiens, UniProt Q13191).
T1 construct: Cbl-b-HiBit KI Jurkat Cells were purchased from Promega; host or cells: Cbl-b-HiBiT knock-in Jurkat cells
T1 sequence (Q13191 whole entry): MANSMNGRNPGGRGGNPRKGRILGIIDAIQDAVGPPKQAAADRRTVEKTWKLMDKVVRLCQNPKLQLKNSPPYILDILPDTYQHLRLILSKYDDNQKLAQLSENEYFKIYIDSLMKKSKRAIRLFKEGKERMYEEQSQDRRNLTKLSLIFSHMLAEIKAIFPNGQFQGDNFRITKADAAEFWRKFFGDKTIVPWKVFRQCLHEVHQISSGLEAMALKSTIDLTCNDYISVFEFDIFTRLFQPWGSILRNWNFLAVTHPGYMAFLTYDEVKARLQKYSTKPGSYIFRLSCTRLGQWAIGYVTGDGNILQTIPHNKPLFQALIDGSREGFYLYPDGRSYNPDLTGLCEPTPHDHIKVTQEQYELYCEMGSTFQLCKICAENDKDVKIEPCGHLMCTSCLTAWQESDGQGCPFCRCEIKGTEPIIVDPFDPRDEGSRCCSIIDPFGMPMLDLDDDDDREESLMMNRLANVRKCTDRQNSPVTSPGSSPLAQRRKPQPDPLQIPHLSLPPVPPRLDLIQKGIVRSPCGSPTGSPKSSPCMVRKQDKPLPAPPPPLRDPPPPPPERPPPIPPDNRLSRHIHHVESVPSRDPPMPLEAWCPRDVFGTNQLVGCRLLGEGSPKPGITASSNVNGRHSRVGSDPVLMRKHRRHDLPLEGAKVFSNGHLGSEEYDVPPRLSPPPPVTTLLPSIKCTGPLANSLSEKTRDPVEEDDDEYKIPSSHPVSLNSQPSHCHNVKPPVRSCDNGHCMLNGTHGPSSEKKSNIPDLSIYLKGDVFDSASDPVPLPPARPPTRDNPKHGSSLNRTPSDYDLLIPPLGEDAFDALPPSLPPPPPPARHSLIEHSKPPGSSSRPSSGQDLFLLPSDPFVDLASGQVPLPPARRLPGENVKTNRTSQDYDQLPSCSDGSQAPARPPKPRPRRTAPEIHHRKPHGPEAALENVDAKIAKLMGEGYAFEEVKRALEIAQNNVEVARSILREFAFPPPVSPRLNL
In words: Cbl-b Degradation Method B (Nano-Glo HiBiT lytic detection). In kind it is cell-based. The conditions noted are these: Cbl-b-HiBit KI Jurkat Cells, incubated at least 6-24 hours; half maximal degradation; read-out: Cbl-b Degredation Method B IC50. The essentials:
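Cbl-b-HiBiT knock-in Jurkat cells (20,000/well) were treated after ~24 h plating with an 11-point 1:3 series for 6-24 h at 37° C. Remaining Cbl-b measured by Nano-Glo HiBiT lytic luminescence. DC50 and Dmax expressed as % of control.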
In general terms: HiBiT is a short tag that completes a luciferase, so light tracks the accessible tagged protein.
As for `CC(C)n1c(=O)n(C2CCC(=O)NC2=O)c2cccc(N3CCC(O[C@H]4CC[C@H](CN5CCN(Cc6cc7c(c(C(F)(F)F)c6)CN(c6cccc([C@]8(Cc9nncn9C)C[C@@H](C#N)C8)c6)C7=O)C(C)(C)C5)CC4)CC3)c21` (some centres unmarked) [Example 275, (1r,3r)-3-(3-{6-[(2,2-dimethyl-4-{[(1r,4r)-4-({1-[1-(2,6-dioxopiperidin-3-yl)-2-oxo-3-(propan-2-yl)-2,3-dihydro-1H-1,3-benzodiazol-4-yl]piperidin-4-yl}oxy)cyclohexyl]methyl}piperazin-1-yl)methyl]-1-oxo-4-(trifluoromethyl)-2,3-dihydro-1H-isoindol-2-yl}phenyl)-3-[(4-methyl-4H-1,2,4-triazol-3-yl)methyl]cyclobutane-1-carbonitrile], the DC50 fell in the range of 0.005 to 0.05 µM.
Same read-out and setting: in the case of `CC1c2c(cc(CN3CCN(C[C@H]4CC[C@H](OC5CCN(c6ccc7c(c6F)CN(C6CCC(=O)NC6=O)C7=O)CC5)CC4)CC3(C)C)cc2C(F)(F)F)C(=O)N1c1cccc(C2(Cc3nncn3C)COC2)c1` (some centres unmarked) [Example 279, 3-[4-fluoro-1-oxo-5-(4-{[(1r, 4r)-4-[(3,3-dimethyl-4-{[1-methyl-2-(3-{3-[(4-methyl-4H-1,2,4-triazol-3-yl)methyl]oxetan-3-yl}phenyl)-3-oxo-7-(trifluoromethyl)-2,3-dihydro-1H-isoindol-5-yl]methyl}piperazin-1-yl)methyl]cyclohexyl]oxy}piperidin-1-yl)-2,3-dihydro-1H-isoindol-2-yl]piperidine-2,6-dione] it was above 0.5 µM; in that of `CC1c2nc(N3CCC(O[C@H]4CC[C@H](CN5CCN(Cc6cc(C(F)(F)F)c7c(n6)C(=O)N(c6cccc(C8(Cc9nncn9C)COC8)c6)C7)CC5)CC4)CC3)ccc2C(=O)N1C1CCC(=O)NC1=O` (some centres unmarked) [Example 282, 3-[7-methyl-2-[4-[4-[[4-[[6-[3-[3-[(4-methyl-1,2,4-triazol-3-yl)methyl]oxetan-3-yl]phenyl]-7-oxo-4-(trifluoromethyl)-5H-pyrrolo[3,4-b]pyridin-2-yl]methyl]piperazin-1-yl]methyl]cyclohexoxy]-1-piperidyl]-5-oxo-7Hpyrrolo[3,4-b]pyridin-6-yl]piperidine-2,6-dione], above 0.5 µM; in that of `Cn1cnnc1CC1(c2cccc(-n3cc4c(C(F)(F)F)cc(CN5CCC[C@H](CN6CCN(CC7CCN(c8ccc9c(c8F)CN(C8CCC(=O)NC8=O)C9=O)CC7)CC6(C)C)C5)cc4n3)c2)COC1` (stereo partly drawn) [Example 285, 3-(5-{4-[(3,3-dimethyl-4-{[(3S)-1-{[2-(3-{3-[(4-methyl-4H-1,2,4-triazol-3-yl)methyl]oxetan-3-yl}phenyl)-4-(trifluoromethyl)-2H-indazol-6-yl]methyl}piperidin-3-yl]methyl}piperazin-1-yl)methyl]piperidin-1-yl}-4-fluoro-1-oxo-2,3-dihydro-1H-isoindol-2-yl)piperidine-2,6-dione], above 0.5 µM.
On the same count and under the same terms, the value for `CC1c2nc(N3CCC(CN4CCN(CC5CCN(Cc6cc7c(c(C(F)(F)F)c6)CN(c6cccc([C@]8(Cc9nncn9C)C[C@@H](C#N)C8)c6)C7=O)CC5)C(C)(C)C4)CC3)ccc2C(=O)N1C1CCC(=O)NC1=O` (some centres unmarked) [Example 287, (1r,3r)-3-(3-{6-[(4-{[4-({1-[6-(2,6-dioxopiperidin-3-yl)-7-methyl-5-oxo-5H,6H,7H-pyrrolo[3,4-b]pyridin-2-yl]piperidin-4-yl}methyl)-2,2-dimethylpiperazin-1-yl]methyl}piperidin-1-yl)methyl]-1-oxo-4-(trifluoromethyl)-2,3-dihydro-1H-isoindol-2-yl}phenyl)-3-[(4-methyl-4H-1,2,4-triazol-3-yl)methyl]cyclobutane-1-carbonitrile] was above 0.5 µM; that for `CC(C)n1c(=O)n(C2CCC(=O)NC2=O)c2cccc(N3CCC(CN4CCN(C[C@H]5CCCN(Cc6cc7c(c(C(F)(F)F)c6)CN(c6cccc(C8(Cc9nncn9C)CC(C#N)C8)c6)C7=O)C5)C(C)(C)C4)CC3)c21` (stereo partly drawn) [Example 288, (1r*,3r*)-3-[3-(6-{[(3S)-3-{[4-({1-[1-(2,6-dioxopiperidin-3-yl)-2-oxo-3-(propan-2-yl)-2,3-dihydro-1H-1,3-benzodiazol-4-yl]piperidin-4-yl}methyl)-2,2-dimethylpiperazin-1-yl]methyl}piperidin-1-yl]methyl}-1-oxo-4-(trifluoromethyl)-2,3-dihydro-1H-isoindol-2-yl)phenyl]-3-[(4-methyl-4H-1,2,4-triazol-3-yl)methyl]cyclobutane-1-carbonitrile] was above 0.5 µM; that for `CC(C)n1c(=O)n(C2CCC(=O)NC2=O)c2ccc(N3CCN(Cc4ccc(-c5cc6c(c(C(F)(F)F)c5)CN(c5cccc([C@]7(Cc8nncn8C)C[C@@H](C#N)C7)c5)C6=O)cc4)CC3)cc21` (some centres unmarked) [Example 295, (1r,3r)-3-(3-{6-[4-({4-[1-(2,6-dioxopiperidin-3-yl)-2-oxo-3-(propan-2-yl)-2,3-dihydro-1H-1,3-benzodiazol-5-yl]piperazin-1-yl}methyl)phenyl]-1-oxo-4-(trifluoromethyl)-2,3-dihydro-1H-isoindol-2-yl}phenyl)-3-[(4-methyl-4H-1,2,4-triazol-3-yl)methyl]cyclobutane-1-carbonitrile] was above 0.5 µM.
Still for that read-out and setting: in the case of `Cn1cnnc1CC1(c2cccc(-n3cc4c(C(F)(F)F)cc(CN5CCC[C@H](CN6CCC[C@@H](OC7CCN(c8ccc9c(c8F)CN(C8CCC(=O)NC8=O)C9=O)CC7)C6)C5)cc4n3)c2)COC1` (stereo partly drawn) [Example 297, 3-[4-fluoro-5-(4-{[(3R)-1-{[(3S)-1-{[2-(3-{3-[(4-methyl-4H-1,2,4-triazol-3-yl)methyl]oxetan-3-yl}phenyl)-4-(trifluoromethyl)-2H-indazol-6-yl]methyl}piperidin-3-yl]methyl}piperidin-3-yl]oxy}piperidin-1-yl)-1-oxo-2,3-dihydro-1H-isoindol-2-yl]piperidine-2,6-dione] it was above 0.5 µM.
Turning to `Cn1cnnc1CC1(c2cccc(-n3cc4c(C(F)(F)F)cc(CN5CCC[C@@H](CN6CCC(CN7CCN(c8ccc9c(c8F)CN(C8CCC(=O)NC8=O)C9=O)CC7)CC6)C5)cc4n3)c2)COC1` (stereo partly drawn) [Example 298, 3-(4-fluoro-5-{4-[(1-{[(3S)-1-{[2-(3-{3-[(4-methyl-4H-1,2,4-triazol-3-yl)methyl]oxetan-3-yl}phenyl)-4-(trifluoromethyl)-2H-indazol-6-yl]methyl}piperidin-3-yl]methyl}piperidin-4-yl)methyl]piperazin-1-yl}-1-oxo-2,3-dihydro-1H-isoindol-2-yl)piperidine-2,6-dione], the DC50 is above 0.5 µM.
The same measure, in the same setting: the value for `Cn1cnnc1CC1(c2cccc(-n3cc4c(C(F)(F)F)cc(CN5CCC(CN6CCC(CN7CCN(c8ccc9c(c8F)CN(C8CCC(=O)NC8=O)C9=O)CC7)CC6)CC5)cc4n3)c2)COC1` (centres unmarked) [Example 299, 3-{4-fluoro-5-[4-({1-[(1-{[2-(3-{3-[(4-methyl-4H-1,2,4-triazol-3-yl)methyl]oxetan-3-yl}phenyl)-4-(trifluoromethyl)-2H-indazol-6-yl]methyl}piperidin-4-yl)methyl]piperidin-4-yl}methyl)piperazin-1-yl]-1-oxo-2,3-dihydro-1H-isoindol-2-yl}piperidine-2,6-dione] was above 0.5 µM.

Staying with this experiment, now noted: Cbl-b-HiBit KI Jurkat Cells, incubated at least 6-24 hours; maximum degradation observed; read-out: Cbl-b Degredation Method B Dmax (%).
As for `CC(C)n1c(=O)n(C2CCC(=O)NC2=O)c2cccc(N3CCC(O[C@H]4CC[C@H](CN5CCN(Cc6cc7c(c(C(F)(F)F)c6)CN(c6cccc([C@]8(Cc9nncn9C)C[C@@H](C#N)C8)c6)C7=O)C(C)(C)C5)CC4)CC3)c21` (some centres unmarked) [Example 275, (1r,3r)-3-(3-{6-[(2,2-dimethyl-4-{[(1r,4r)-4-({1-[1-(2,6-dioxopiperidin-3-yl)-2-oxo-3-(propan-2-yl)-2,3-dihydro-1H-1,3-benzodiazol-4-yl]piperidin-4-yl}oxy)cyclohexyl]methyl}piperazin-1-yl)methyl]-1-oxo-4-(trifluoromethyl)-2,3-dihydro-1H-isoindol-2-yl}phenyl)-3-[(4-methyl-4H-1,2,4-triazol-3-yl)methyl]cyclobutane-1-carbonitrile], the Dmax lay within 35 to 70%.

The term Dmax denotes the greatest extent of degradation seen.
